Test results reported in patent publication US11090319B2, “Therapeutic uses of pharmaceutical compositions comprising cyclic boronic acid ester derivatives” (Melinta Subsidiary Corp., priority 2010, dated 2021).
Read-outs that look alike come from different tables or passages of the source.

Assays:
Assay in all cases: biochemical
Type in all cases: biochemical
[1] = target: various β-lactamases (bacterial lysates) (Klebsiella pneumoniae, UniProt Q9F663, H272Y)
[2] = target: various β-lactamases (bacterial lysates) (Salmonella typhimurium, UniProt P0A1V8); conditions: AZT IC50 KPX1001 OXA-2
[3] = target: various β-lactamases (bacterial lysates) (Klebsiella pneumoniae, UniProt Q9F663); conditions: aztreonam cleavage
[4] = target: various β-lactamases (bacterial lysates) (Escherichia coli, UniProt A0A5R8T042); conditions: read-out: AZT IC50 KP1009 CTX-M-15
[5] = target: various β-lactamases (bacterial lysates) (Escherichia coli, UniProt A0A649V088); conditions: read-out: AZT IC50 KP1005 CTX-M-14
[6] = target: various β-lactamases (bacterial lysates) (Pseudomonas aeruginosa, UniProt P14489); conditions: AZT IC50 KP1007 OXA-10
[7] = lysate KP1004 KPC-2, read-out: AZT IC50 KP1004 KPC-2 (converted)
[8] = lysate KP1008 KPC-2, read-out: AZT IC50 KP1008 KPC-2

various β-lactamases (bacterial lysates) (Klebsiella pneumoniae, UniProt Q9F663), sequence (Q9F663 whole entry, looked up): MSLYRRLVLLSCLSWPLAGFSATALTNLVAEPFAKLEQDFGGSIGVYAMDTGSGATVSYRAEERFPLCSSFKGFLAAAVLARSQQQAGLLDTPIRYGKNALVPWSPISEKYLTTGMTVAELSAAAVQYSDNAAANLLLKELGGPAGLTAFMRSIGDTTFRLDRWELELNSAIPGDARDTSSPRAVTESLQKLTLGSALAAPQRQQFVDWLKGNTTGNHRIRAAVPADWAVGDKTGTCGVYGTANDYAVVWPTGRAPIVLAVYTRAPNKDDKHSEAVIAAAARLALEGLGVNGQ
various β-lactamases (bacterial lysates) (Escherichia coli, UniProt A0A5R8T042), sequence (A0A5R8T042 29-291): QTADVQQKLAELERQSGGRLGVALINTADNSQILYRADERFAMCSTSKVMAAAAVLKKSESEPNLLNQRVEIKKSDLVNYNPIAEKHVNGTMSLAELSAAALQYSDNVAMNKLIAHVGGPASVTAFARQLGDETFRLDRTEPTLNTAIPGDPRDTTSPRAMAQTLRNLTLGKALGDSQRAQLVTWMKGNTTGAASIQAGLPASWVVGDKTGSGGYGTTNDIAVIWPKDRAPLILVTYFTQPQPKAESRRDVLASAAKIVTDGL
various β-lactamases (bacterial lysates) (Escherichia coli, UniProt A0A649V088), sequence (A0A649V088 29-291): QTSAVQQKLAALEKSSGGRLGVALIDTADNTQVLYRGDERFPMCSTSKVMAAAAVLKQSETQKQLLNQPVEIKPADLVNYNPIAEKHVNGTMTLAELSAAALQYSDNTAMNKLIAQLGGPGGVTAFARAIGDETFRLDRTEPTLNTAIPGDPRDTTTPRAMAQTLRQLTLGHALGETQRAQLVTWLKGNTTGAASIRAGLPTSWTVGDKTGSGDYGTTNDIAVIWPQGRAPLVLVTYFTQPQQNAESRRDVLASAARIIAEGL
various β-lactamases (bacterial lysates) (Pseudomonas aeruginosa, UniProt P14489), sequence (P14489 20-266): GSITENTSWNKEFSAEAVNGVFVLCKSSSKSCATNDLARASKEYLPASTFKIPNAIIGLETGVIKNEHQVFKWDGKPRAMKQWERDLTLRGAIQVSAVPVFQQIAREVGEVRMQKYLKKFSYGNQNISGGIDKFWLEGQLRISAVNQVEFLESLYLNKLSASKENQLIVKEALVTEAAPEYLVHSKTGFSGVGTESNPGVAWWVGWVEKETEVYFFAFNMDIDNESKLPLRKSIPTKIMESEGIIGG
various β-lactamases (bacterial lysates) (Klebsiella pneumoniae, UniProt Q9F663, H272Y), sequence (Q9F663 whole entry H272Y, looked up): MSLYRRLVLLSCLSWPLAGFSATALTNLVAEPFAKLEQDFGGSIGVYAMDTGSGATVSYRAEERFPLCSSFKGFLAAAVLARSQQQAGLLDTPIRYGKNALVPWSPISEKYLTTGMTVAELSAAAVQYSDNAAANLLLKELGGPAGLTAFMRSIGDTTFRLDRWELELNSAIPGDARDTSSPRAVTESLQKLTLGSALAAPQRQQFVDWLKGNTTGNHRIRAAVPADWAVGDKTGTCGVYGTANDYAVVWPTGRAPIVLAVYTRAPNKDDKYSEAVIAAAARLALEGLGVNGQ
various β-lactamases (bacterial lysates) (Salmonella typhimurium, UniProt P0A1V8), sequence (P0A1V8 22-275): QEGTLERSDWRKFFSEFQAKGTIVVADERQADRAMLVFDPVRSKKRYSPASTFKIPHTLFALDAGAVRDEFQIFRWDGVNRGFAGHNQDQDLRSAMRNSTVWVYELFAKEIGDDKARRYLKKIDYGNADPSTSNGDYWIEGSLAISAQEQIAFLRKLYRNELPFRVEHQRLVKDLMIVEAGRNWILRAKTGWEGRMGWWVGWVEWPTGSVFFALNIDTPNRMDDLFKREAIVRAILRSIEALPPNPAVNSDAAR

SMILES | IC50 [1] | IC50 [2] | IC50 [3, 7] | IC50 [3, 8] | IC50 [4] | IC50 [5] | IC50 [6]
N[C@H](C(=O)N[C@H]1CC[C@@H](CC(=O)O)OB1O)c1ccccc1 [Compound 33, 2-((3R,6S)-3-((S)-2-amino-2-phenylacetamido)-2-hydroxy-1,2-oxaborinan-6-yl)acetic acid] | < 1.63 µM | 1.63 to 6.53 µM | 1.63 to 6.53 µM | 1.63 to 6.53 µM | > 6.53 µM | < 1.63 µM | > 6.53 µM
NCCC(=O)N[C@H]1CC[C@@H](CC(=O)O)OB1O [Compound 34, 2-((3R,6S)-3-(3-aminopropanamido)-2-hydroxy-1,2-oxaborinan-6-yl)acetic acid] | < 2.05 µM | > 8.19 µM | 2.05 to 8.19 µM | 2.05 to 8.19 µM | > 8.19 µM | > 8.19 µM | > 8.19 µM
N[C@@H](CCC(=O)N[C@H]1CC[C@@H](CC(=O)O)OB1O)C(=O)O [Compound 35, (S)-2-amino-5-((3R,6S)-6-(carboxymethyl)-2-hydroxy-1,2-oxaborinan-3-ylamino)-5-oxopentanoic acid] | < 1.66 µM | > 6.62 µM | > 6.62 µM | > 6.62 µM | > 6.62 µM | > 6.62 µM | > 6.62 µM
O=C(O)C[C@@H]1CC[C@H](NC(=O)CCc2ccccc2)B(O)O1 [Compound 38, 2-((3R,6S)-2-hydroxy-3-(3-phenylpropanamido)-1,2-oxaborinan-6-yl)acetic acid] | < 1.64 µM | 1.64 to 6.55 µM | < 1.64 µM | < 1.64 µM | 1.64 to 6.55 µM | < 1.64 µM | > 6.55 µM
CSCCC(N)C(=O)N[C@H]1CC[C@@H](CC(=O)O)OB1O (stereo partly drawn) [Compound 41, 2-((3R,6S)-3-(2-amino-4-(methylthio)butanamido)-2-hydroxy-1,2-oxaborinan-6-yl)acetic acid] | < 1.64 µM | > 6.58 µM | < 1.64 µM | < 1.64 µM | > 6.58 µM | > 6.58 µM | > 6.58 µM
NC(Cc1cccnc1)C(=O)N[C@H]1CC[C@@H](CC(=O)O)OB1O (stereo partly drawn) [Compound 42, 2-((3R,6S)-3-(2-amino-3-(pyridin-3-yl)propanamido)-2-hydroxy-1,2-oxaborinan-6-yl)acetic acid] | < 1.56 µM | > 6.23 µM | < 1.56 µM | < 1.56 µM | > 6.23 µM | > 6.23 µM | > 6.23 µM
O=C(O)C[C@@H]1CC[C@H](NC(=O)Cc2cccnc2)B(O)O1 [Compound 43, 2-((3R,6S)-2-hydroxy-3-(2-(pyridin-3-yl)acetamido)-1,2-oxaborinan-6-yl)acetic acid] | < 1.71 µM | 1.71 to 6.85 µM | < 1.71 µM | < 1.71 µM | > 6.85 µM | 1.71 to 6.85 µM | > 6.85 µM
O=C(O)C[C@@H]1CC[C@H](NC(=O)[C@@H]2CCCCN2)B(O)O1 [Compound 45, 2-((3R,6S)-2-hydroxy-3-((S)-piperidine-2-carboxamido)-1,2-oxaborinan-6-yl)acetic acid] | < 1.76 µM | > 7.04 µM | 1.76 to 7.04 µM | 1.76 to 7.04 µM | > 7.04 µM | > 7.04 µM | > 7.04 µM
O=C(O)C[C@@H]1CC[C@H](NC(=O)[C@H]2Cc3ccccc3CN2)B(O)O1 [Compound 46, 2-((3R,6S)-2-hydroxy-3-((R)-1,2,3,4-tetrahydroisoquinoline-3-carboxamido)-1,2-oxaborinan-6-yl)acetic acid] | < 1.51 µM | > 6.02 µM | < 1.51 µM | < 1.51 µM | > 6.02 µM | > 6.02 µM | > 6.02 µM
N=C(N)NCCC[C@@H](N)C(=O)N[C@H]1CC[C@@H](CC(=O)O)OB1O [Compound 47, 2-((3R,6S)-3-((R)-2-amino-5-guanidinopentanamido)-2-hydroxy-1,2-oxaborinan-6-yl)acetic acid] | < 1.52 µM | > 6.08 µM | 1.52 to 6.08 µM | 1.52 to 6.08 µM | > 6.08 µM | > 6.08 µM | > 6.08 µM
O=C(O)C[C@@H]1CC[C@H](NC(=O)Cc2ccncc2)B(O)O1 [Compound 49, 2-((3R,6S)-2-hydroxy-3-(2-(pyridin-4-yl)acetamido)-1,2-oxaborinan-6-yl)acetic acid] | < 1.71 µM | 1.71 to 6.85 µM | < 1.71 µM | < 1.71 µM | > 6.85 µM | 1.71 to 6.85 µM | > 6.85 µM
N[C@H]1CC[C@@H](CC(=O)N[C@H]2CC[C@@H](CC(=O)O)OB2O)CC1 [Compound 50, 2-((3R,6S)-3-(2-(4-aminocyclohexyl)acetamido)-2-hydroxy-1,2-oxaborinan-6-yl)acetic acid] | < 1.6 µM | > 6.41 µM | < 1.6 µM | < 1.6 µM | > 6.41 µM | 1.6 to 6.41 µM | > 6.41 µM
O=C(O)C[C@@H]1CC[C@H](NC(=O)C[C@H]2CCCCN2)B(O)O1 [Compound 52, 2-((3R,6S)-2-hydroxy-3-(2-((R)-piperidin-2-yl)acetamido)-1,2-oxaborinan-6-yl)acetic acid] | 1.68 to 6.71 µM | > 6.71 µM | < 1.68 µM | 1.68 to 6.71 µM | > 6.71 µM | > 6.71 µM | > 6.71 µM
O=C(O)C[C@@H]1CC[C@H](NC(=O)C[C@@H]2CCCCN2)B(O)O1 [Compound 53, 2-((3R,6S)-2-hydroxy-3-(2-((S)-piperidin-2-yl)acetamido)-1,2-oxaborinan-6-yl)acetic acid] | 1.68 to 6.71 µM | 1.68 to 6.71 µM | < 1.68 µM | 1.68 to 6.71 µM | > 6.71 µM | > 6.71 µM | > 6.71 µM
Cc1nc2ccccc2n1CCC(=O)N[C@H]1CC[C@@H](CC(=O)O)OB1O [Compound 55, 2-((3R,6S)-2-hydroxy-3-(3-(2-methyl-1H-benzo[d]imidazol-1-yl)propanamido)-1,2-oxaborinan-6-yl)acetic acid] | < 1.39 µM | 1.39 to 5.57 µM | < 1.39 µM | < 1.39 µM | > 5.57 µM | 1.39 to 5.57 µM | > 5.57 µM
O=C(O)C[C@@H]1CC[C@H](NC(=O)c2ccc(Cn3cnnn3)cc2)B(O)O1 [Compound 56, 2-((3R,6S)-3-(4-((1H-tetrazol-1-yl)methyl)benzamido)-2-hydroxy-1,2-oxaborinan-6-yl)acetic acid] | < 1.39 µM | 1.39 to 5.57 µM | < 1.39 µM | < 1.39 µM | 1.39 to 5.57 µM | < 1.39 µM | > 5.57 µM
O=C(O)C[C@@H]1CC[C@H](NC(=O)Cc2ccccn2)B(O)O1 [Compound 57, 2-((3R,6S)-2-hydroxy-3-(2-(pyridin-2-yl)acetamido)-1,2-oxaborinan-6-yl)acetic acid] | < 1.71 µM | > 6.85 µM | < 1.71 µM | < 1.71 µM | > 6.85 µM | < 1.71 µM | > 6.85 µM
O=C(O)C[C@@H]1CC[C@H](NC(=O)c2cn(C3CC3)c3cc(N4CCNCC4)c(F)cc3c2=O)B(O)O1 [Compound 58, 2-((3R,6S)-3-(1-cyclopropyl-6-fluoro-4-oxo-7-(piperazin-1-yl)-1,4-dihydroquinoline-3-carboxamido)-2-hydroxy-1,2-oxaborinan-6-yl)acetic acid] | < 1.03 µM | > 4.11 µM | < 1.03 µM | < 1.03 µM | > 4.11 µM | 1.03 to 4.11 µM | > 4.11 µM
C[C@]1(Cn2ccnn2)[C@H](C(=O)N[C@H]2CC[C@@H](CC(=O)O)OB2O)N2C(=O)C[C@H]2S1(=O)=O [Compound 59, 2-[(3R,6S)-2-hydroxy-3-[(2S,3 S,5R)-3-methyl-4,4,7-trioxo-3-(1H-1,2,3-triazol-1-ylmethyl)-4λ^6-thia-1-azabicyclo[3.2.0]heptane-2-amido]-1,2-oxaborinan-6-yl]acetic acid] | 1.1 to 4.39 µM | 1.1 to 4.39 µM | 1.1 to 4.39 µM | < 1.1 µM | > 4.39 µM | > 4.39 µM | > 4.39 µM
O=C(O)C[C@@H]1CC[C@H](NC(=O)CCc2nnc(-c3ccccc3)o2)B(O)O1 [Compound 60, 2-((3R,6S)-2-hydroxy-3-(3-(5-phenyl-1,3,4-oxadiazol-2-yl)propanamido)-1,2-oxaborinan-6-yl)acetic acid] | < 1.34 µM | 1.34 to 5.36 µM | < 1.34 µM | < 1.34 µM | 1.34 to 5.36 µM | 1.34 to 5.36 µM | > 5.36 µM
Nc1cc(CC(=O)N[C@H]2CC[C@@H](CC(=O)O)OB2O)ccn1 [Compound 61, 2-((3R,6S)-3-(2-(2-aminopyridin-4-yl)acetamido)-2-hydroxy-1,2-oxaborinan-6-yl)acetic acid] | < 1.63 µM | 1.63 to 6.51 µM | < 1.63 µM | < 1.63 µM | > 6.51 µM | 1.63 to 6.51 µM | > 6.51 µM
CCOC(=O)C[C@@H]1CC[C@H](NC(=O)Cc2cccs2)B(O)O1 [Compound 65, ethyl 2-((3R,6S)-2-hydroxy-3-(2-(thiophen-2-yl)acetamido)-1,2-oxaborinan-6-yl)acetate] | > 6.15 µM | 1.54 to 6.15 µM | 1.54 to 6.15 µM | 1.54 to 6.15 µM | > 6.15 µM | 1.54 to 6.15 µM | > 6.15 µM
